pEC50: −log10 of the molar value.
Biological target: T1, human vitamin D receptor (VDR) (Homo sapiens, UniProt P11473)
T1 construct: expressed in transfected cells; host or cells: HEK293 cells (ATCC), transient polyethylene-imine-based transfection
T1 sequence (P11473 127-423 limits assumed): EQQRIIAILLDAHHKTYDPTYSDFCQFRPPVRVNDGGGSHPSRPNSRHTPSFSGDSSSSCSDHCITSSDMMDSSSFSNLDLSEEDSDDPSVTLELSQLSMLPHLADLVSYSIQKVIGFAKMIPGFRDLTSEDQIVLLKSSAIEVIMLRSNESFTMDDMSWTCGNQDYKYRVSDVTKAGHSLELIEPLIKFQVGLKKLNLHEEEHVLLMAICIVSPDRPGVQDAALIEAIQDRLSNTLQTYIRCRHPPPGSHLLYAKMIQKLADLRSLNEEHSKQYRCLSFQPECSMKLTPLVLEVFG
Assay: Human vitamin D receptor (VDR) agonist activity, GAL4-VDR LBD luciferase transactivation assay in HEK293 cells
Assay type: cell-based
Details: transiently transfected HEK293 cells, VDR LBD-GAL4 DBD hybrid receptor, pFR-Luc luciferase reporter, 16 h incubation; read-out: Effective concentrations of half maximal activation (EC50)
Text: By way of example, the human vitamin D receptor (VDR) agonist activity of the claimed compounds can be tested using a cell based transactivation assay in an eukaryotic cell line. After a co-transfection, using a reporter plasmid construct and a hybrid receptor construct containing the ligand-binding domain of the human VDR linked to the DNA-binding domain of the yeast transcription factor GAL4, the cultured cells were stimulated by the VDR agonists. The hybrid VDR-GAL4 receptor binds the VDR agonists and transactivates luciferase reporter expression through the GAL4-response elements in the promoter of the luciferase gene (reporter construct). The VDR agonist binding and transactivation is determined by measuring the luciferase luminescence activity. The effective concentration of half maximal activation (EC50) was determined for the VDR agonists by means of dose-response experiments. The details of the protocol method of this test according to the invention are described in the example section. […]

- pEC50: 8.10
Compound: CC/C(=C\C=C\C(O)(C(F)(F)F)C(F)(F)F)c1cccc(CCc2ccc(CO)c(C(C)O)c2)c1 (racemic) [I-a, (3E,5E)-1,1,1-trifluoro-6-(3-(3-(1-hydroxyethyl)-4-(hydroxymethyl)phenethyl)phenyl)-2-(trifluoromethyl)octa-3,5-dien-2-ol]
